Assay results reported in article PMC7747594, “Protease-activated receptor-2 ligands reveal orthosteric and allosteric mechanisms of receptor inhibition” (Communications Biology, 2020).
Where “and” joins values, the source holds several entries; their conditions need not be identical. Equal entries are not always repeated. Values belong to the molecule of their own block, whether it stands above or below them.

What was measured:
Assay type in all cases: in vivo
macrophages = test: Immunohistochemistry, ED1-positive macrophages in rat paw; details: 30 min after agonist administration
Protocol: (§1) Rat paw tissues were collected, fixed in 10% neutral-buffered formalin (Sigma-Aldrich) for 2 h at 4 °C, transferred into falcon tubes containing 25% sucrose in PBS and left overnight at 4 °C. Tissues were then embedded with Optimal Cutting Temperature compound (OCT, Sakura Finetek, USA) and stored at −80 °C before making cryo-sections for histological analysis. Frozen sections (5 µm) were made using a cryostat-microtome (Leica Biosystems, Germany). For mast cell staining, slides were briefly washed with distilled water before staining with 0.1% toluidine blue (Sigma-Aldrich, pH 2.5) for 3 min. Slides were then dehydrated and mounted in DPX mountant (Sigma-Aldrich, USA). For immunohistochemistry, slides were briefly rinsed with PBS to remove OCT. Except for tryptase staining, antigen retrieval was performed by incubating slides in citrate buffer (0.01 M, pH 6) at 95 °C for 20 min. They were then cooled down briefly and incubated with blocking medium (PBS, 0.1% Triton X-100, 10% horse serum) for 1 h at room temperature in a humidity chamber. Samples were incubated with primary antibody medium (PBS, 0.1% Triton X-100, 4% horse serum; 1:100 primary antibody including – histamine, neutrophil elastase or ED1 antibodies) overnight at 4 °C. […] Tryptase-, neutrophil elastase- and ED1-positive cells were quantified using FIJI/ImageJ 1.42q software, USA.

[1] = test system: myeloperoxidase (MPO) activity; test: Myeloperoxidase assay on rat paw tissue; details: for MPO activity (unit mg^-1): 2f-induced rat paw oedema, paw tissue, individual animals (Figure 5i); for Myeloperoxidase (MPO) activity increased by 2f-LIGRLO-NH2: pre-treatment, 30 min
Protocol: Rat paw tissues were collected, snap-frozen with liquid N2, and stored at −80 °C. Samples were cut with a scalpel, weighed, and added to MPO buffer (50 mM potassium phosphate buffer, pH 6.0) to a concentration of 200 mg ml^−^1, before homogenising using zirconium oxide beads (1 and 2 mm, Next Advance, USA) and a Bullet Blender® homogeniser (Next Advance, USA). Homogenised tissues were diluted to 100 mg ml^−1 with MPO buffer containing 1% hexadecyl trimethylammonium bromide (Sigma-Aldrich, USA). Samples were then sonicated for 5 min, centrifuged at 13,000 × g for 10 min at 4 °C, and the clear supernatant for each sample was collected.

mast cells = test: Immunohistochemistry, histamine release in rat paw; details: pre-treatment; 30 min
Protocol: as §1

PAR2 = biological target: T1, PAR2 (Rattus norvegicus, UniProt Q63645); test: PAR2 agonist (2f-LIGRLO-NH2)-induced rat paw oedema, paw swelling; details: for reduction of paw swelling: Wistar rats; for % swelling: 2f-induced rat paw oedema, individual animals (Figure 5a); for paw swelling: AZ3451 10 mg kg^−1 s.c. 30 min before, AZ8838 10 mg kg^−1 p.o. 2 h before 2f-LIGRLO-NH2; for anti-inflammatory activity in vivo after oral delivery / anti-inflammatory activity in vivo after subcutaneous injection: rat paw oedema
T1 construct: from tissue; host or cells: hind paw of male Wistar rats, in vivo
T1 sequence (Q63645 26-397): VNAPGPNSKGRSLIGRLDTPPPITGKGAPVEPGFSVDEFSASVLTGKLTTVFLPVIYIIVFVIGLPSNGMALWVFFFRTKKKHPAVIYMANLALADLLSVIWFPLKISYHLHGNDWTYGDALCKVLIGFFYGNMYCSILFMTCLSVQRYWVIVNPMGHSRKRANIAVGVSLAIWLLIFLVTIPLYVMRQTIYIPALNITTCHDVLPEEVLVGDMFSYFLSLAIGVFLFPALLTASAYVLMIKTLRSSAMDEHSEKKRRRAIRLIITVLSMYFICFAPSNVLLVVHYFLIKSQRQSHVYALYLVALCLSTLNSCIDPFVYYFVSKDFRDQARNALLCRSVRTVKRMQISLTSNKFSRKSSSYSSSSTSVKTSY
Protocol: Following Australian ethical standards, animals were air transported to the Institute for Bioengineering and Nanotechnology (University of Queensland, Australia). Animals were housed at room temperature and kept in 12 h light/dark cycles, with standard chow and water provided ad libitum, for at least a 48 h acclimatisation period before experiments. […] Saline only was given to sham paws. […] Control animals received either DMSO s.c. or 20% DMSO/80% olive oil via oral gavage. […] At the 30 min time point, a portion of animals was euthanised by CO2 inhalation and their paws collected for further analyses. All in vivo experimental procedures and animal handling were conducted with approval from the Animal Ethics Committee at the University of Queensland which follows NHMRC and ARRIVE guidelines. After experimentation, animals are humanely euthanized by CO2 inhalation as stipulated by the ethical agreements.
Experimental results were expressed as mean ± s.e.m. Graphs were plotted and data analysed using GraphPad Prism7. Statistical differences were assessed using Student’s t-tests (two-tailed) for data sets of two, one-way ANOVA for data sets of three or more with Bonferroni post-hoc tests, or two-way repeated-measures ANOVA with Tukey post-hoc tests for temporal data sets, as appropriate. Significance was set at ^+p < 0.05, ^++p < 0.01, ^+++p < 0.001, ^++++p < 0.0001 compared to sham, and *p < 0.05, **p < 0.01, ***p < 0.001, ****p < 0.0001 compared to disease control.

reduction of paw swelling (PAR2; 10 mg kg^−1 s.c. 30 min prior to 2f-LIGRLO-NH2 350 µg per paw): 60% | % swelling (PAR2; Time 0 h): 0% | paw swelling (PAR2): significantly reduced paw swelling | anti-inflammatory activity in vivo after oral delivery (PAR2): not after oral delivery | anti-inflammatory activity in vivo after subcutaneous injection (PAR2): active in vivo
SMILES: C[C@@H](C1CCCCC1)n1c(-c2cc3c(cc2Br)OCO3)nc2cc(C(=O)Nc3ccc(C#N)cc3)ccc21 [AZ3451]
number of ED1 +ve cells in rat paw tissue compared to sham (macrophages): no significant difference | MPO activity (unit mg^-1) [1]: 0.2692 unit mg^-1 and 0.2802 unit mg^-1 and 0.295 unit mg^-1 and 0.3577 unit mg^-1 | Myeloperoxidase (MPO) activity increased by 2f-LIGRLO-NH2 [1]: reduced almost to baseline | histamine release (mast cells): blocked | % swelling (PAR2; Time 0.5 h): 48.3188% and 41.0115% and 38.4554% and 0.2044% | % swelling (PAR2; Time 1 h): 31.4446% and 1.303% and 21.2807% and 5.312% | % swelling (PAR2; Time 2 h): 1.7017% and 2.985% and 4.564% and -2.962% | % swelling (PAR2; Time 4 h): 3.1932% and 1.708% and -5.029% and 2.557%

SMILES: CCCc1cc(F)ccc1C(O)c1ncc[nH]1 (centres unmarked) [AZ8838]
number of ED1 +ve cells in rat paw tissue compared to sham (macrophages): no significant difference | MPO activity (unit mg^-1) [1]: 0.2682 unit mg^-1 and 0.2003 unit mg^-1 and 0.454 unit mg^-1 and 0.2121 unit mg^-1 and 0.4127 unit mg^-1 | Myeloperoxidase (MPO) activity increased by 2f-LIGRLO-NH2 [1]: reduced almost to baseline | histamine release (mast cells): blocked | reduction of paw swelling (PAR2; 10 mg kg^−1 p.o. 2 h prior to 2f-LIGRLO-NH2 350 µg per paw): 60% | % swelling (PAR2; Time 0 h): 0% | % swelling (PAR2; Time 0.5 h): 24.8579% and 43.6327% and 41.4698% and 6.42% | % swelling (PAR2; Time 1 h): 17.7725% and 33.5029% and 21.2259% and 5.253% | % swelling (PAR2; Time 2 h): -0.8821% and 11.1837% and 14.1177% and -4.556% | % swelling (PAR2; Time 4 h): -4.225% and 3.626% and 12.7121% and -4.201% | paw swelling (PAR2): significantly reduced paw swelling | anti-inflammatory activity in vivo after oral delivery (PAR2): anti-inflammatory in vivo | anti-inflammatory activity in vivo after subcutaneous injection (PAR2): anti-inflammatory in vivo
